Columns and labels:
Heat shock protein HSP90 = Heat shock protein HSP90 (Homo sapiens, UniProt P07900+P08238); experiment: Inhibition of Hsp90 by recombinant ATPase assay; format: functional
SK-BR-3 = experiment: Antiproliferative activity against human SKBr3 cells; format: functional, cell-based
[1] = Homo sapiens, SK-BR-3, read-out: IC50

Compound	IC50 (Heat shock protein HSP90) [µM]	IC50 (SK-BR-3; [1]) [µM]	IC50 (SK-BR-3; sk-br-3)
CC1(C)CC2=Nc3ccccc3NC(c3cccc(O)c3O)C2=C(O)C1 (stereo not given)	2.7	66	–
O=c1c(Oc2ccc(F)cc2)coc2c(O)c(O)ccc12	3.2	–	Not Active
Cc1cc(O)nc(SCC(=O)c2ccc(O)c(O)c2)n1	2.3	–	Not Active
O=S(=O)(Nc1ccc(Cl)cc1O)c1ccccc1	2	75	–
COc1ccc(O)c(-c2c[nH]nc2-c2cccs2)c1	3	–	Not Active
COc1cc(C2CC(c3ccccc3O)=NN2)ccc1O (stereo not given)	5.4	48	–
O=C1CC(=O)N(c2cccc(Cl)c2)N1	4.1	–	Not Active
Cc1nc(N)sc1-c1csc(Nc2ccccn2)n1	7	–	Not Active
O=C1CC(Nc2ccc(N3CCOCC3)cc2)C(=O)N1Cc1ccccc1 (stereo not given)	1.9	–	Not Active
COc1cccc(C(=O)Nc2ccc(O)c(C)c2)c1	2.5	–	Not Active
